Five compounds from patent US12297294B2, “Cortistatin analogues for the treatment of inflammatory and/or immune diseases” (BCN PEPTIDES, S.A., priority 2013, dated 2025) can be followed below.

The nature of data set [1]: Serum stability in 90% human serum at 37° C., RP-HPLC. The class given is in vitro ADME. As to conditions: for main metabolite in serum: loss of C-terminal Lys. As for the experimental part: The new compounds were incubated with 90% human serum at 37° C. Aliquots were extracted at different incubation times. Methanol was added to precipitate the proteins from the serum, it was centrifuged and the supernatant was subject to a chromatographic analysis using RP-HPLC (Gradient: 20-80% B in 30 min, B=0.07% TFA in acetonitrile). The disappearance of the initial product was analyzed using the area corresponding to the initial product and half-life time was calculated.

For a further data set, the system named is Raw 264 cells. The experiment in a line: Inflammatory response in vitro: LPS-stimulated Raw 264 cells, cytokines (ELISA) and NO (Griess). As to conditions: LPS 1 μg/ml, peptide 100 nM, 24 hours; for NO (nitric oxide) level in supernatant: Griess test, basal 0.44; for IL-6 level in supernatant: basal 0; for TNFalpha level in supernatant: basal 0.48. The class given is cell-based. The procedure: Raw 264 cells were cultured in complete DMEM medium until a confluence of 80% was reached. The cells were incubated either in the absence or presence of lipopolysaccharide (LPS, 1 μg/ml, from E. coli serotype 055:B5). The cells incubated in the absence of lipopolysaccharide were used as a reference (basal). The new cortistatin analogues were added at 100 nM concentration at the start of the culture. After 24 hours, the supernatants were collected and cytokine and nitric oxide levels were measured. The cytokine level (TNFalpha and IL-6) was established using a ELISA test. The quantity of nitric oxide (NO) was established using the Griess test. Equal volumes of supernatants from the culture (90 μl) and Griess reagents were mixed and absorbance was measured at 550 nm. The nitrite amount was calculated in relation to a standard NaNO2 curve.
For comparison, the values of cortistatin-14 (CST-14), somatostatin-14 (SOM-14) and three somatostatin analogues described in WO 2010/128098 A1 were evaluated: […]

The subject of a further data set is T cells (splenocytes). Nature of the data set: Immune response in vitro: anti-CD3 stimulated splenocyte T cells, proliferation and cytokines. The class given is cell-based, C57B1I/6 mice. As to conditions: anti-CD3 2 μg/ml, peptide 100 nM; for INFγ level in supernatant / IL-2 level in supernatant: 48 hours; for INFγ level in supernatant: activated 2.52, basal 0; for IL-2 level in supernatant: activated 3.22, basal 0.23; for proliferation ([3H]-thymidine incorporation): 72 hours, activated 9843, basal 640. The procedure:
Splenocytes from 8 week old male C57B1I/6 mice were obtained after mechanical dissociation of cells, filtration through a nylon mesh and lysis of red blood cells. The splenocytes were incubated in complete DMEM medium until a density of 10^6 cells/ml. The non-adherent cells (formed in 80% by T cells) were used for measuring cytokines and for proliferation assays. The T cells were cultured in complete DMEM medium and stimulated with anti-CD3 antibodies (2 μg/ml) in the presence of different cortistatin analogues at a concentration of 100 nM. After 48 hours, the supernatants of the culture were isolated and the levels of cytokines (IFNγ and IL-2) were determined by using an ELISA test. In order to determine the effect of the different cortistatin analogues in proliferation, the cells were cultured for 72 hours and 0.5 μCi (0.0185 MBq)/well of [^3H]— thymidine was added for the last 8 hours of culture, the membranes were collected and the added [^3H]-Thymidine was measured using a scintillation counter.
For comparison, the values of cortistatin-14 (CST-14), somatostatin-14 (SOM-14) and three somatostatin analogues described in WO 2010/128098 A1 were determined: […]

Where a SMILES comes first, the peptide text is derived from it. Bridges are numbered along the chain shown (N, C = ends).

Turning to `C[C@H](N)C(=O)NCC(=O)N[C@H]1CSSC[C@@H](C(=O)O)NC(=O)[C@H](CO)NC(=O)[C@H]([C@@H](C)O)NC(=O)[C@H](Cc2ccccc2)NC(=O)[C@H]([C@@H](C)O)NC(=O)[C@H](CCCCN)NC(=O)[C@@H](Cc2c[nH]c3ccccc23)NC(=O)[C@H](Cc2cc(F)cc(F)c2)NC(=O)[C@H](Cc2ccccc2)NC(=O)[C@H](CC(N)=O)NC(=O)[C@H](CCCCN)NC1=O` [Compound 6, H-L-Ala-Gly-c[L-Cys-L-Lys-L-Asn-L-Phe-L-Dfp-D-Trp-L-Lys-L-Thr-L-Phe-L-Thr-L-Ser-L-Cys]-OH], the half-life in data set [1] is 3.8 h.
Regarding “H2N-AGc[CKNFFWKTFTSC]-OH (AGCKNFFWKTFTSC; disulfide cyclised; Somatostatin-14; DISULFID (3)..(14)) [SST-14, endogenous peptide somatostatin-14]”, in the data set with Raw 264 cells, the “NO (nitric oxide) level in supernatant” value came out at 4.32 ng/mL, the “IL-6 level in supernatant” value turned out to be 4.2 ng/mL and the “TNFalpha level in supernatant” value came to 5.21 ng/mL. Also, in the data set on T cells (splenocytes), the “INFγ level in supernatant” value was 2.31 ng/mL, the “IL-2 level in supernatant” value is recorded as 3.14 ng/mL and the “proliferation ([3H]-thymidine incorporation)” value is given as 9936.
Regarding `C[C@@H](O)[C@@H]1NC(=O)[C@H](CCCCN)NC(=O)[C@H](Cc2c[nH]c3ccccc23)NC(=O)[C@H](Cc2ccccc2)NC(=O)[C@H](Cc2ccccc2)NC(=O)[C@H](CC(N)=O)NC(=O)[C@H](CCCCN)NC(=O)[C@@H](NC(=O)[C@@H]2CCCN2)CSSC[C@@H](C(=O)N[C@@H](CCCCN)C(=O)O)NC(=O)[C@H](CO)NC(=O)[C@H](CO)NC(=O)[C@H](Cc2ccccc2)NC1=O` [CST-14] (H-PCKNFFWKTFSSCK-OH; disulfide 2-13), in the data set with Raw 264 cells, the “NO (nitric oxide) level in supernatant” value was found to be 3.08 ng/mL, the “IL-6 level in supernatant” value stood at 3.78 ng/mL and the “TNFalpha level in supernatant” value amounted to 3.17 ng/mL. For the same compound, in the data set with T cells (splenocytes), the “INFγ level in supernatant” value stood at 1.13 ng/mL, the “IL-2 level in supernatant” value is listed as 1.52 ng/mL and the “proliferation ([3H]-thymidine incorporation)” value came to 5500. Besides, the “main metabolite in serum” value in data set [1] was “compound 14”.
In the case of `CCCCCCCC(=O)N1CCC[C@H]1C(=O)N[C@H]1CSSC[C@@H](C(=O)O)NC(=O)[C@H](CO)NC(=O)[C@H]([C@@H](C)O)NC(=O)[C@H](Cc2ccccc2)NC(=O)[C@H]([C@@H](C)O)NC(=O)[C@H](CCCCN)NC(=O)[C@@H](Cc2c[nH]c3ccccc23)NC(=O)[C@H](Cc2ccccc2)NC(=O)[C@H](Cc2c(C)cc(C)cc2C)NC(=O)[C@H](CC(N)=O)NC(=O)[C@H](CCCCN)NC1=O` [Compound 5, Octanoyl-L-Pro-c[L-Cys-L-Lys-L-Asn-L-Msa-L-Phe-D-Trp-L-Lys-L-Thr-L-Phe-L-Thr-L-Ser-L-Cys]-OH], in data set [1], the half-life was 35 h.
As to `CCCCCCCC(=O)N1CCC[C@H]1C(=O)N[C@H]1CSSC[C@@H](C(=O)N[C@@H](CCCCN)C(=O)O)NC(=O)[C@H](CO)NC(=O)[C@H]([C@@H](C)O)NC(=O)[C@H](Cc2ccccc2)NC(=O)[C@H]([C@@H](C)O)NC(=O)[C@H](CCCCN)NC(=O)[C@@H](Cc2c[nH]c3ccccc23)NC(=O)[C@H](Cc2ccccc2)NC(=O)[C@H](Cc2c(C)cc(C)cc2C)NC(=O)[C@H](CC(N)=O)NC(=O)[C@H](CCCCN)NC1=O` [Compound 4, Octanoyl-L-Pro-c[L-Cys-L-Lys-L-Asn-L-Msa-L-Phe-D-Trp-L-Lys-L-Thr-L-Phe-L-Thr-L-Ser-L-Cys-]-L-Lys-OH], in data set [1], the half-life was 0.35 h and the “main metabolite in serum” value is “compound 5”.
